Values joined by “and” are separate entries in the source; they are usually repeats but may differ in a detail not shown here. Identical values can stand only once. Where a SMILES comes first, the peptide text is derived from it. The star is where a group is joined. Cbz = O=C(OCc1ccccc1)*
Key:
Test in all cases: cells
OMC-1 = type: functional, cell-based, Homo sapiens;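 also: growth inhibition of the OMC-1 cell line, measured by a cell viability assay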
Description: SANGER: Inhibition of human OMC-1 cell growth in a cell viability assay.

DJM-1 = type: functional, cell-based, Homo sapiens;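 also: growth inhibition of human DJM-1 cells, read out by a cell viability assay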
Description: SANGER: Inhibition of human DJM-1 cell growth in a cell viability assay.

DOHH-2 = type: functional, cell-based, Homo sapiens;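 also: growth inhibition of human DOHH-2 cells, read out with a cell viability assay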
Description: SANGER: Inhibition of human DOHH-2 cell growth in a cell viability assay.

RCC10RGB = type: functional, cell-based, Homo sapiens;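 also: growth inhibition of human RCC10RGB cells, read out by a cell viability assay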
Description: SANGER: Inhibition of human RCC10RGB cell growth in a cell viability assay.

SNU-5 = type: functional, cell-based, Homo sapiens;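 also: cell viability readout used to measure growth inhibition in human NCI-SNU-5 cells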
Description: SANGER: Inhibition of human NCI-SNU-5 cell growth in a cell viability assay.

NCI-H446 = type: functional, cell-based, Homo sapiens;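 also: growth inhibition of NCI-H446 cells determined by a cell viability assay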
Description: SANGER: Inhibition of human NCI-H446 cell growth in a cell viability assay.

KARPAS-45 = type: functional, cell-based, Homo sapiens;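 also: inhibition of cell line growth, read out through a viability assay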
Description: SANGER: Inhibition of human KARPAS-45 cell growth in a cell viability assay.

NEC8 = type: functional, cell-based, Homo sapiens;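 also: growth inhibition of human NEC8 cells, read out by a cell viability assay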
Description: SANGER: Inhibition of human NEC8 cell growth in a cell viability assay.

BV-173 = type: functional, cell-based, Homo sapiens
Description: SANGER: Inhibition of human BV-173 cell growth in a cell viability assay.

SK-UT-1 = type: functional, cell-based, Homo sapiens;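 also: growth inhibition of SK-UT-1 cells, measured by a cell viability assay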
Description: SANGER: Inhibition of human SK-UT-1 cell growth in a cell viability assay.

NCI-H1155 = type: functional, cell-based, Homo sapiens;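 also: cell growth inhibition measured by a viability assay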
Description: SANGER: Inhibition of human NCI-H1155 cell growth in a cell viability assay.

TGBC1TKB = type: functional, cell-based, Homo sapiens;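 also: growth inhibition of TGBC1TKB cells, read out by a cell viability assay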
Description: SANGER: Inhibition of human TGBC1TKB cell growth in a cell viability assay.

NCI-H2126 = type: functional, cell-based, Homo sapiens;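 also: growth inhibition of the cancer cell line, determined with a cell viability readout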
Description: SANGER: Inhibition of human NCI-H2126 cell growth in a cell viability assay.

VA-ES-BJ = type: functional, cell-based, Homo sapiens;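 also: growth inhibition of the VA-ES-BJ cell line, read out by a cell viability assay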
Description: SANGER: Inhibition of human VA-ES-BJ cell growth in a cell viability assay.

NCI-H23 = type: functional, cell-based, Homo sapiens;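 also: cell viability assay measuring growth inhibition of NCI-H23 cells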
Description: SANGER: Inhibition of human NCI-H23 cell growth in a cell viability assay.

HT = type: functional, cell-based, Homo sapiens
Description: SANGER: Inhibition of human HT cell growth in a cell viability assay.

NCI-H82 = type: functional, cell-based, Homo sapiens;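 also: growth inhibition of NCI-H82 cells, measured with a cell viability readout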
Description: SANGER: Inhibition of human NCI-H82 cell growth in a cell viability assay.

A3-KAW = type: functional, cell-based, Homo sapiens;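 also: growth inhibition of human A3-KAW cells, read out with a cell viability assay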
Description: SANGER: Inhibition of human A3-KAW cell growth in a cell viability assay.

SK-N-DZ = type: functional, cell-based, Homo sapiens; settings: read-out: IC50;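 also: growth inhibition of the cancer cell line, read out through a viability assay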
Description: SANGER: Inhibition of human SK-N-DZ cell growth in a cell viability assay.

HL-60 = type: functional, cell-based, Homo sapiens;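 also: growth inhibition of human HL-60 cells, read out with a cell viability assay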
Description: SANGER: Inhibition of human HL-60 cell growth in a cell viability assay.

NCI-H1092 = type: functional, cell-based, Homo sapiens;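 also: cell growth inhibition measured with a cell viability assay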
Description: SANGER: Inhibition of human NCI-H1092 cell growth in a cell viability assay.

KNS-42 = type: functional, cell-based; settings: Homo sapiens;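 also: growth inhibition of KNS-42 cells, read out with a cell viability assay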
Description: SANGER: Inhibition of human KNS-42 cell growth in a cell viability assay.

MZ2-MEL = type: functional, cell-based, Homo sapiens;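 also: growth inhibition of MZ2-MEL cells read out with a cell viability assay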
Description: SANGER: Inhibition of human MZ2-MEL cell growth in a cell viability assay.

A388 = type: functional, cell-based; settings: Homo sapiens;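 also: growth inhibition of human A388 cells, read out with a cell viability assay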
Description: SANGER: Inhibition of human A388 cell growth in a cell viability assay.

NCI-H69 = type: functional, cell-based, Homo sapiens;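 also: growth inhibition of the cell line, read out with a cell viability assay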
Description: SANGER: Inhibition of human NCI-H69 cell growth in a cell viability assay.

HD-MY-Z = type: functional, cell-based, Homo sapiens;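 also: growth inhibition of HD-MY-Z cells, read out with a cell viability assay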
Description: SANGER: Inhibition of human HD-MY-Z cell growth in a cell viability assay.

TE-10 = type: functional, cell-based, Homo sapiens;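 also: growth inhibition of TE-10 cells, measured by a cell viability assay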
Description: SANGER: Inhibition of human TE-10 cell growth in a cell viability assay.

EW-11 = type: functional, cell-based, Homo sapiens;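 also: growth inhibition of human EW-11 cells, measured with a cell viability assay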
Description: SANGER: Inhibition of human EW-11 cell growth in a cell viability assay.

SBC-1 = type: functional, cell-based, Homo sapiens;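 also: cell viability assay measuring growth inhibition of the SBC-1 cell line, IC50 being the concentration that halves growth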
Description: SANGER: Inhibition of human SBC-1 cell growth in a cell viability assay.

ALL-PO = type: functional, cell-based, Homo sapiens;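 also: growth inhibition of ALL-PO cells, read out by a cell viability assay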
Description: SANGER: Inhibition of human ALL-PO cell growth in a cell viability assay.

NKM-1 = type: functional, cell-based, Homo sapiens;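 also: growth inhibition of NKM-1 cells, read out with a cell viability assay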
Description: SANGER: Inhibition of human NKM-1 cell growth in a cell viability assay.

RPMI-8226 = type: functional, cell-based, Homo sapiens
Description: SANGER: Inhibition of human RPMI-8226 cell growth in a cell viability assay.

CTB-1 = type: functional, cell-based, Homo sapiens
Description: SANGER: Inhibition of human CTB-1 cell growth in a cell viability assay.

KINGS-1 = type: functional, cell-based, Homo sapiens;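 also: cell viability assay measuring suppression of KINGS-1 cell growth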
Description: SANGER: Inhibition of human KINGS-1 cell growth in a cell viability assay.

HT-144 = type: functional, cell-based, Homo sapiens
Description: SANGER: Inhibition of human HT-144 cell growth in a cell viability assay.

Calu-6 = type: functional, cell-based, Homo sapiens;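 also: growth of human Calu-6 cells, read out by a cell viability assay, IC50 marking inhibition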
Description: SANGER: Inhibition of human Calu-6 cell growth in a cell viability assay.

MEG-01 = type: functional, cell-based, Homo sapiens;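 also: growth inhibition of MEG-01 cells, read out by a cell viability assay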
Description: SANGER: Inhibition of human MEG-01 cell growth in a cell viability assay.

D283 Med = type: functional, cell-based, Homo sapiens
Description: SANGER: Inhibition of human D-283MED cell growth in a cell viability assay.

LOX IMVI = type: functional, cell-based, Homo sapiens
Description: SANGER: Inhibition of human LOXIMVI cell growth in a cell viability assay.

PSN1 = type: functional, cell-based, Homo sapiens;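 also: suppression of growth of human PSN1 cells, read out by a cell viability assay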
Description: SANGER: Inhibition of human PSN1 cell growth in a cell viability assay.

EKVX = type: functional, cell-based, Homo sapiens;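 also: growth inhibition of human EKVX cells, read out with a cell viability assay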
Description: SANGER: Inhibition of human EKVX cell growth in a cell viability assay.

NCI-H1581 = type: functional, cell-based, Homo sapiens;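 also: cell growth inhibition read out by a viability assay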
Description: SANGER: Inhibition of human NCI-H1581 cell growth in a cell viability assay.

P30-OHK = type: functional, cell-based, Homo sapiens;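 also: growth inhibition of the P30-OHK cell line, read out with a cell viability assay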
Description: SANGER: Inhibition of human P30-OHK cell growth in a cell viability assay.

SK-MEL-1 = type: functional, cell-based, Homo sapiens;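 also: growth inhibition of human SK-MEL-1 cells, read out by a cell viability assay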
Description: SANGER: Inhibition of human SK-MEL-1 cell growth in a cell viability assay.

JVM-2 = type: functional, cell-based, Homo sapiens;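 also: growth inhibition of JVM-2 cells determined by a cell viability assay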
Description: SANGER: Inhibition of human JVM-2 cell growth in a cell viability assay.

SW 954 = type: functional, cell-based, Homo sapiens;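 also: growth inhibition of SW954 human cancer cells, read out as cell viability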
Description: SANGER: Inhibition of human SW954 cell growth in a cell viability assay.

EW-1 = type: functional, cell-based, Homo sapiens
Description: SANGER: Inhibition of human EW-1 cell growth in a cell viability assay.

TE-8 = type: functional, cell-based, Homo sapiens;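 also: growth inhibition of TE-8 cells, measured with a cell viability readout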
Description: SANGER: Inhibition of human TE-8 cell growth in a cell viability assay.

Lu-65 = type: functional, cell-based, Homo sapiens;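 also: growth inhibition of Lu-65 cancer cells, read out by a cell viability assay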
Description: SANGER: Inhibition of human LU-65 cell growth in a cell viability assay.

Compound: O=S(=O)(O)c1ccc2cc(/N=N/c3cc(S(=O)(=O)O)c4cccnc4c3O)ccc2c1
- IC50 (OMC-1; Homo sapiens, OMC-1): > 16000 nM
- IC50 (DJM-1; Homo sapiens, DJM-1): > 16000 nM
- IC50 (DOHH-2; Homo sapiens, DOHH-2): > 16000 nM
- IC50 (RCC10RGB; Homo sapiens, RCC10RGB): > 16000 nM
- IC50 (SNU-5; Homo sapiens, SNU-5): > 16000 nM
- IC50 (NCI-H446; Homo sapiens, NCI-H446): > 16000 nM
- IC50 (KARPAS-45; Homo sapiens, KARPAS-45): > 16000 nM
- IC50 (NEC8; Homo sapiens, NEC8): > 16000 nM
- IC50 (BV-173; Homo sapiens, BV-173): > 16000 nM
- IC50 (SK-UT-1; Homo sapiens, SK-UT-1): > 16000 nM
- IC50 (NCI-H1155; Homo sapiens, NCI-H1155): > 16000 nM
- IC50 (TGBC1TKB; Homo sapiens, TGBC1TKB): > 16000 nM
- IC50 (NCI-H2126; Homo sapiens, NCI-H2126): > 16000 nM
- IC50 (VA-ES-BJ; Homo sapiens, VA-ES-BJ): > 16000 nM
- IC50 (NCI-H23; Homo sapiens, NCI-H23): > 16000 nM
- IC50 (HT; Homo sapiens, HT): > 16000 nM
- IC50 (NCI-H82; Homo sapiens, NCI-H82): > 16000 nM
- IC50 (A3-KAW; Homo sapiens, A3-KAW): > 16000 nM
- IC50 (SK-N-DZ; Homo sapiens, SK-N-DZ): > 16000 nM
- IC50 (HL-60; Homo sapiens, HL-60): > 16000 nM
- IC50 (NCI-H1092; Homo sapiens, NCI-H1092): > 16000 nM
- IC50 (KNS-42): > 16000 nM
- IC50 (MZ2-MEL; Homo sapiens, MZ2-MEL): > 16000 nM
- IC50 (A388): > 16000 nM
- IC50 (NCI-H69; Homo sapiens, NCI-H69): > 16000 nM
- IC50 (HD-MY-Z; Homo sapiens, HD-MY-Z): > 16000 nM
- IC50 (TE-10; Homo sapiens, TE-10): > 16000 nM
- IC50 (EW-11; Homo sapiens, EW-11): > 16000 nM
- IC50 (SBC-1; Homo sapiens, SBC-1): > 16000 nM
- IC50 (ALL-PO; Homo sapiens, ALL-PO): > 16000 nM
- IC50 (NKM-1; Homo sapiens, NKM-1): > 16000 nM
- IC50 (RPMI-8226; Homo sapiens, RPMI-8226): > 16000 nM
- IC50 (CTB-1; Homo sapiens, CTB-1): > 16000 nM
- IC50 (KINGS-1; Homo sapiens, KINGS-1): > 16000 nM
- IC50 (HT-144; Homo sapiens, HT-144): > 16000 nM
- IC50 (Calu-6; Homo sapiens, Calu-6): > 16000 nM
- IC50 (MEG-01; Homo sapiens, MEG-01): > 16000 nM
- IC50 (D283 Med; Homo sapiens, D283 Med): > 16000 nM
- IC50 (LOX IMVI; Homo sapiens, LOX IMVI): > 16000 nM
- IC50 (PSN1; Homo sapiens, PSN1): > 16000 nM
- IC50 (EKVX; Homo sapiens, EKVX): > 16000 nM
- IC50 (NCI-H1581; Homo sapiens, NCI-H1581): > 16000 nM
- IC50 (P30-OHK; Homo sapiens, P30-OHK): > 16000 nM
- IC50 (SK-MEL-1; Homo sapiens, SK-MEL-1): > 16000 nM
- IC50 (JVM-2; Homo sapiens, JVM-2): > 16000 nM
- IC50 (SW 954; Homo sapiens, SW 954): > 16000 nM
- IC50 (EW-1; Homo sapiens, EW-1): > 16000 nM
- IC50 (TE-8; Homo sapiens, TE-8): > 16000 nM
- IC50 (Lu-65; Homo sapiens, Lu-65): > 16000 nM

Compound: CC(C)C[C@@H](C=O)NC(=O)[C@H](CC(C)C)NC(=O)[C@H](CC(C)C)NC(=O)OCc1ccccc1 [MG-132] (Cbz-Leu-Leu-Leu-aldehyde)
- IC50 (OMC-1; omc-1): > 1000 nM
- IC50 (DJM-1; djm-1): > 1000 nM
- IC50 (DOHH-2; dohh-2): > 1000 nM
- IC50 (RCC10RGB; Homo sapiens, RCC10RGB): > 1000 nM
- IC50 (RCC10RGB; rcc10rgb): > 1000 nM
- IC50 (SNU-5; snu-5): 695 nM and > 1000 nM
- IC50 (NCI-H446; Homo sapiens, NCI-H446): > 1000 nM
- IC50 (NCI-H446; nci-h446): > 1000 nM
- IC50 (KARPAS-45; karpas-45): > 1000 nM
- IC50 (NEC8; nec8): 120 nM and > 1000 nM
- IC50 (BV-173; bv-173): > 1000 nM
- IC50 (SK-UT-1; sk-ut-1): 220 nM and > 1000 nM
- IC50 (NCI-H1155; nci-h1155): > 1000 nM
- IC50 (TGBC1TKB; tgbc1tkb): > 1000 nM and 686 nM
- IC50 (NCI-H2126; nci-h2126): 627 nM and > 1000 nM
- IC50 (VA-ES-BJ; va-es-bj): 223 nM and > 1000 nM
- IC50 (NCI-H23; nci-h23): > 1000 nM
- IC50 (HT; ht): > 1000 nM
- IC50 (NCI-H82; nci-h82): > 1000 nM
- IC50 (A3-KAW; a3-kaw): > 1000 nM
- IC50 (SK-N-DZ; sk-n-dz): > 1000 nM
- IC50 (HL-60; hl-60): > 1000 nM
- IC50 (NCI-H1092; nci-h1092): 388 nM and > 1000 nM
- IC50 (MZ2-MEL; mz2-mel): 176 nM and > 1000 nM
- IC50 (NCI-H69; nci-h69): 151 nM and > 1000 nM
- IC50 (HD-MY-Z; hd-my-z): 233 nM and > 1000 nM
- IC50 (TE-10; te-10): 964 nM and > 1000 nM
- IC50 (EW-11; ew-11): > 1000 nM
- IC50 (SBC-1; Homo sapiens, SBC-1): > 1000 nM
- IC50 (SBC-1; sbc-1): > 1000 nM
- IC50 (ALL-PO; all-po): > 1000 nM
- IC50 (NKM-1; nkm-1): > 1000 nM
- IC50 (RPMI-8226; rpmi-8226): > 1000 nM and 423 nM
- IC50 (CTB-1; ctb-1): 780 nM and > 1000 nM
- IC50 (KINGS-1; kings-1): 148 nM and 628 nM
- IC50 (HT-144; ht-144): 139 nM and 334 nM
- IC50 (Calu-6; Homo sapiens, Calu-6): > 1000 nM
- IC50 (Calu-6; calu-6): > 1000 nM
- IC50 (MEG-01; meg-01): > 1000 nM
- IC50 (D283 Med; d283 med): > 1000 nM
- IC50 (LOX IMVI; Homo sapiens, LOX IMVI): > 1000 nM
- IC50 (LOX IMVI; lox imvi): > 1000 nM
- IC50 (PSN1; psn1): > 1000 nM
- IC50 (EKVX; ekvx): > 1000 nM
- IC50 (NCI-H1581; Homo sapiens, NCI-H1581): > 1000 nM
- IC50 (NCI-H1581; nci-h1581): > 1000 nM
- IC50 (P30-OHK; p30-ohk): > 1000 nM
- IC50 (SK-MEL-1; Homo sapiens, SK-MEL-1): > 1000 nM
- IC50 (SK-MEL-1; sk-mel-1): > 1000 nM
- IC50 (JVM-2; jvm-2): > 1000 nM
- IC50 (SW 954; Homo sapiens, SW 954): > 1000 nM
- IC50 (SW 954; sw 954): > 1000 nM
- IC50 (EW-1; ew-1): 210 nM and > 1000 nM
- IC50 (TE-8; Homo sapiens, TE-8): 343 nM
- IC50 (TE-8; te-8): 270 nM
- IC50 (Lu-65; lu-65): > 1000 nM
